What was measured:
[1] = system: mature osteoclasts on bone slices; assay: ruffled membrane formation / V-ATPase trafficking in mature osteoclasts on bone slices (anti-E subunit antibody); type: cell-based
Description: FIG. 7 depicts that enoxacin (10 μM) blocks ruffled membrane formation. Mature osteoclasts on bone slices were treated with enoxacin or vehicle control for 3 days, then fixed and labeled with an anti-E subunit antibody. […] Arrows point to representative osteoclasts; The present inventors also tested the effects of enoxacin on osteoclasts that were already mature and loaded onto bone slices. In this experiment, mature osteoclasts on bone slices were treated with enoxacin or vehicle control for 3 days, then fixed and labeled with an anti-E subunit antibody. Control osteoclasts produced many ruffled membranes.

[2] = system: osteoclast formation in calcitriol-stimulated mouse marrow cultures; assay: osteoclastogenesis stimulated by calcitriol in mouse marrow cultures; type: cell-based
Description: Enoxacin and Binhib 2 were then tested for their effects on osteoclastogenesis stimulated by calcitriol in mouse marrow cultures. The mixed cultures represent a model for the complex interactions that regulate bone resorption in vivo. […] Osteoclast and osteoblast-containing mouse bone marrow cultures are obtained as above described. 4-6-week-old Swiss-Webster mice (Harlan, Indianapolis, Ind.) are sacrificed by cervical dislocation. Femurs and tibias are dissected free of adherent tissue; the marrow is expelled by cutting both bone ends and flushing the marrow cavity with MEM D10 using a 25-gauge needle. The marrow cells are washed twice and plated in 6 well plates at a concentration of 1×10^6 nucleated cells/cm^2 in MEM D1 0 containing 10 nM calcitriol. Cultures are fed on the third and fifth day of culture by replacing half of the medium with fresh medium containing calcitriol. Cultures are treated with enoxacin at 10 μM or vehicle control on Day 1, and when the media is refreshed.

[3] = target: T1, interaction between recombinantly-expressed B2 subunit and pure rabbit muscle F-actin (Homo sapiens, UniProt P21281); assay: pelleting assay of B subunit binding to F-actin; settings: for inhibition at 100 µM: 100 uM inhibitor compound, recombinant B subunit 1 μM, F-actin 2 μM, densitometry of SDS-PAGE gels, read-out: % inhibition
T1 construct: made in house
Description: Twenty-one small molecules are tested for their ability to block interaction between recombinantly-expressed B2 subunit and pure rabbit muscle F-actin.
Recombinant B subunit (1 μM) plus/minus F-actin (2 μM)) plus/minus 100 uM inhibitor compounds were incubated for 10 minutes in 20 mM Tris/HCl (pH 7.5), 100 mM NaCl, 1 mM MgCl2, 0.2 mM CaCl2, 0.5 mM ATP, 0.2 mM DTT, then subjected to ultracentrifugation at 180,000×g for 45 min. Supernatants and pellets were collected in SDS-PAGE sample buffer, separated by SDS-PAGE, stained with Coomassie Blue, and densitometry was performed using a Flurchem 8000 (Alpha Innotech, San Leandro Calif.).
The percent inhibition was determined by densitometry of SDS-PAGE gels. The raw densitometric number obtained of the recombinant B subunit band that was pelleted with F-actin, but with no compound present, represented 0% inhibition. The amount of the raw densitometric number of the amount of recombinant B subunit that pelleted with no actin present, but with compound, represented 100% inhibition. The amount of recombinant B subunit that pelleted with actin and the compound being tested was placed as a percentage assuming a linear response.

[4] = system: osteoclast formation in mouse marrow cultures; assay: TRAP staining of mouse marrow cultures treated with bis-enoxacin; type: cell-based; parameters: unit of the concentration uncertain; settings: 1 (unit uncertain)0 mM; 6 Days; TRAP positive cells
Description: Mouse marrow cultures were treated with bis-enoxacin at the concentrations of 5 mM, 10 mM, 25 mM, 50 mM, and 100 mM respectively, for 6 Days in wells of a 24-well plate. The cells were fixed and stained for tartrate-resistant acid phosphatase (TRAP) activity which is a marker for osteoclasts. The number of TRAP positive mononuclear, multinuclear (2-10 nuclei) and giant (>10 nuclei) were counted.

[5] = system: mouse marrow osteoclasts on bone slices; assay: bone resorption pitting quantified by scanning electron microscopy; type: cell-based; parameters: dose or concentration left out as unconfirmed; settings: 5 Days
Description: Mouse marrow osteoclasts were grown to maturity for 5 Days then scraped and plated on bone slices treated with bis-enoxacin at the concentrations of 30 mM, 10 mM and 1 mM respectively. After 5 Days, the cells were removed and pitting was quantified by scanning electron microscopy.

mouse marrow osteoclasts = assay: actin ring count on bone slices pre-treated with bis-enoxacin; type: cell-based; settings: bone slices pre-treated at 10 mM and 1 mM; 3 Days of culture
Description: Bone slices were incubated with bis-enoxacin at the concentrations of 10 mM and 1 mM respectively. After a 1 Day incubation, the slices were washed 4 times over a period of 24H. Mouse marrow osteoclasts were then plated on the slices, and after 3 Days of culture the cells were fixed and the number of actin rings (a marker for active osteoclasts) was counted.

[6] = target: T2, V-ATPase interaction with microfilaments (F-actin) (Mus musculus, UniProt P62814); assay: immunoprecipitation of V-ATPase from soluble osteoclast extracts; settings: control extracts treated after homogenization, prior to immunoprecipitation
T2 construct: endogenous in cells; host or cells: primary mouse marrow osteoclasts (RANKL-differentiated)
Description: Immunoprecipitations: To further test whether enoxacin disrupts the capacity of V-ATPase to interact with microfilaments, immunoprecipitations are performed from soluble extracts of osteoclasts that had been treated with enoxacin or vehicle control using anti-E subunit and anti-a3 subunit antibodies developed by the present inventors (Zuo, J., et al. J. Bone Miner. Res. 2006, 21:714-721; Lee, B. S., et al. J. Bone Miner. Res., 1999, 14:2127-2136). It is expected that treatments of control extracts with enoxacin after cells are homogenized, but prior to immunoprecipitation, reduces the amount of F-actin attached to the immunoprecipitated V-ATPase.

GW bodies = assay: GW body formation; type: cell-based, mouse
Description: GW bodies: GW bodies have been reported to be correlated with miRNA activity (Pauley, K. M., et al. EMBO Rep. 2006, 7:904-910; Lian, S., et al. Cell Cycle 2006, 5:242-245). Enoxacin, an enhancer of miRNA activity, is predicted to increase the number of GW bodies present and/or increase the size of GW bodies. To test whether enoxacin affects GW body formation, calcitriol-stimulated mouse marrow cultures, RANKL-stimulated primary hematopoietic cells and primary calvarial osteoblasts are treated with enoxacin. A dose response curve using doses above and below the IC50 dose is performed for inhibition of osteoclast formation and bone resorption. Osteoclast formation, staining and enumerating TRAP+ cells, and ruffled membrane formation are examined, by treating preformed osteoclasts on bone slices. Cells are fixed at various time points after treatment with enoxacin, and stain with polyclonal antibody against GW bodies and monoclonal anti-DCP1. The number of GW bodies in at least 100 randomly sampled cells is counted. The number of GW bodies is divided by the number of nuclei/cell, as determined by counting DAPI stained nuclei. This experiment is repeated in triplicate. Counts are performed by pre-calibrated assistants who are blinded to the nature of the experiment. Images are taken using a Zeiss Axiovert 200 M microscope and a Zeiss AxioCam MRm camera using the 40×0.75 NA objective.

[7] = system: ovariectomized (OVX) rats; assay: ovariectomized (OVX) rat model; type: in vivo; settings: oral daily, 6 weeks
Description: Enoxacin is tested in ovariectomized (OVX) rats that lose bone in a manner similar to that of postmenopausal women. This model has been widely and successfully utilized as an early pre-clinical model for osteoporotic disease (Pun, S., et al. Bone, 2000, 27:197-202; Wronski, T. J., et al. Endocrinology, 1993, 132:823-831; Wronski, T. J., et al. Endocrinology, 1988, 123:681-686; Iwaniec, U. T., et al. Endocrinology, 2002, 143:2515-2526). In this study, the effects of systemic administration of enoxacin are examined.
In this study, ligands identified that block V-ATPase/F-actin interactions and bone resorption in vitro are advanced to in vivo testing in OVX rats. Female Sprague Dawley rats are subjected to sham surgery or ovariectomized at 3 months of age (see the preceding references). On the day after surgery, groups of sham operated control and OVX rats are injected subcutaneously (SC) with vehicle or treated with vehicle via oral gavage. A second group of OVX rats are injected SC 3 days/week with 17β-estradiol (Sigma, St. Louis, Mo.) at a dose of 10 μg/kg to inhibit bone resorption and prevent cancellous bone loss. The animals are treated orally with daily doses of enoxacin including 10, 100 and 400 mg/kg body weight. Each group consist of 10 rats. […] Due to the potential for enoxacin to affect intestinal flora, rats are weighed weekly and closely monitored for weight loss and diarrhea. […]

osteoblast formation = osteoblast formation in mouse marrow cultures, judged by alkaline phosphatase expressing cells; type: cell-based; settings: 1-10 μM
Description: Enoxacin and Binhib 2 were then tested for their effects on osteoclastogenesis stimulated by calcitriol in mouse marrow cultures. The mixed cultures represent a model for the complex interactions that regulate bone resorption in vivo.
In addition, at 1-10 μM enoxacin, osteoclast formation was inhibited while osteoblast formation, judged by alkaline phosphatase expressing cells, was not affected. And, at level of 100 μM, enoxacin blocked 90% of the B subunit from binding F-actin.

T1 sequence (P21281 whole entry): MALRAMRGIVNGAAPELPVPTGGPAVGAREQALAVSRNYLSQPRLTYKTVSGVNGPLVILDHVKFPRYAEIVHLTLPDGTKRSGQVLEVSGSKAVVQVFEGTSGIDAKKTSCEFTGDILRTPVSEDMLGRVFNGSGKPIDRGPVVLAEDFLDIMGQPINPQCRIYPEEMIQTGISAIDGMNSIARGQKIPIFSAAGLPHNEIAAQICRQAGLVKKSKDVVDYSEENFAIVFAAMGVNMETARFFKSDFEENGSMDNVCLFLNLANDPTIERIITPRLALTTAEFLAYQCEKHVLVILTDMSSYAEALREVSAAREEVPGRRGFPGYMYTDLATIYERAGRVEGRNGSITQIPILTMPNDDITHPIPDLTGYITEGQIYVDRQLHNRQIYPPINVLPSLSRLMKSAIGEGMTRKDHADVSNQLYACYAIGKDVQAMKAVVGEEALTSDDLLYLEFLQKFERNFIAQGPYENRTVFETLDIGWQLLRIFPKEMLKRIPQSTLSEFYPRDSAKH
T2 sequence (P62814 whole entry): as the sequence (P21281 whole entry) above, with A25M, V26A, R460K, A464T, F474Y counted along it

| ruffled membrane formation ([1]; concentration not given) | B subunit actin interactions in vitro [3] | inhibition at 100 µM [3] [%] | amount of F-actin attached to the immunoprecipitated V-ATPase [6] | V-ATPase trafficking to ruffled membranes in mature osteoclasts ([1]; 10 μM) | ruffled membrane formation ([1]; 10 μM, 3 days) | E subunit labeling distribution ([1]; mature osteoclasts on bone slices, 3 days) | Compound | osteoclast formation ([2]; concentration not given) | effects on osteoclast formation compared with enoxacin [4] | bone resorption compared to control [5] | reduction of actin ring numbers (mouse marrow osteoclasts) | number and/or size of GW bodies (GW bodies) | ruffled membranes of osteoclasts along the bone surface [7] | formation of osteoclasts ([2]; 1 μM) | osteoclast formation ([2]; 1-10 μM) | IC50 ([2]; Osteoclast, calcitriol-stimulated mouse marrow cultures) [nM] | osteoclast formation ([2]; single dose at the onset of the marrow culture period, end of 7 Days) | osteoblast formation, judged by alkaline phosphatase expressing cells (osteoblast formation) |
| --- | --- | --- | --- | --- | --- | --- | --- | --- | --- | --- | --- | --- | --- | --- | --- | --- | --- | --- |
| blocks | inhibits | 65 | – | – | – | – | O=C(C[N+]12CN3CN(CN(C3)C1)C2)c1ccc(Cl)cc1.[I-] [Binhib 2, 3,5,7-triaza-1-azoniatricyclo[3.3.1.13,7]decane, 1-[2-(4-chlorophenyl)-2-oxoethyl]-iodide] | without affecting | – | – | – | – | – | – | – | – | – | – |
| – | – | – | – | – | – | – | CCn1cc(C(=O)O)c(=O)c2cc(F)c(N3CCN(CC(P(=O)(O)O)P(=O)(O)O)CC3)nc21 [bis-enoxacin, 7-(4-(2,2-Diphosphonoethyl)piperazin-1-yl)-1-ethyl-6-fluoro-4-oxo-1,4-dihydro-1,8-naphthyridine-3-carboxylic acid] | – | identical effects | reduced | approximately 60% | – | – | – | – | – | – | – |
| disrupted | – | 92 | reduces | completely inhibited | blocks | perinuclear distribution | CCn1cc(C(=O)O)c(=O)c2cc(F)c(N3CCNCC3)nc21 [enoxacin, 1-ethyl-6-fluoro-4-oxo-7-(piperazin-1-yl)-1,4-dihydro-1,8-naphthyridine-3-carboxylic acid] | inhibits | – | – | – | increase | does not have ruffled membranes | significantly reduced | inhibited | 1000 | dramatic reductions | not affected |

Reference: patent US20120046246A1, “METHODS FOR TREATING OSTEOCLAST-RELATED DISEASE, COMPOUNDS AND COMPOSITIONS THEREOF” (University of Florida Research Foundation, priority 2008, published 2012)
